Read-outs that look alike come from different tables or passages of the source.
Columns and labels:
[1] = test system: Drosophila imaginal leg discs; assay: Imaginal disc eversion assay; type: cell-based, Drosophila melanogaster; conditions: 15 hr incubation in Robb's medium; for inhibition at 18 µM: Drosophila melanogaster
Experimental: DihydroMotuporamine C, 4a, was used to develop an imaginal disc assay in Drosophila flies. The imaginal leg discs were collected by microscopic dissection from maggots. […] Inhibition was measured as failure of the disc to fully develop into a fly leg after 15 hr of incubation in Robb's growth medium. This presumably occurs by overactivation of Rho, an important signaling pathway in development. Hyper-stimulation of this pathway is sufficient to block development of the fly leg.
Fly Stocks: 20 female and 5 male wild type Oregon variant of Drosophila melanogaster interbred in blue food medium for 24 hours then flies are removed. Third instar wall-crawling larvae collected then dissected on the sixth day. Flies kept in 25° C. incubation chamber.
Blue Food Preparation: Standard corn meal medium heated then mixed completely with aqueous 1% Bromophenol Blue. The food medium is cooled for one day or more before use.
Dissection Medium: Ringer's Buffer with 10 uL 0.1% BSA. Ringer's Medium consists of 130 mM NaCl, 5 mM KCl, 1.5 mM CaCl2-2H2O, Stored at room temperature (23° C.), BSA added before dissection.
Cultivation Medium: Minimal Robb's Medium with 10 uL 0.1% BSA. Minimal Robb's Medium consists of 40 mM KCl, 0.4 mM KH2PO4, 40 mM NaCl, 0.4 mM NaH2PO4.7H2O, 1.2 mM MgSO4.7H2O, 1.2 mM MgCl2-6H2O, 1 mM CaCl2-2H2O, 10 mM Glucose, 0.2 mM L-asparagine, 4.0 mM L-glutamine, 0.16 mM Glycine, 0.64 mM L-leucine, 0.32 mM L-proline, 0.16 mM R-Serine, 0.64 mM L-valine. Stored at −25° C. One day before dissection, aliquot defrosted in 4° C. Add BSA then warmed to room temperature (23° C.) before dissection.
0.1% BSA: 0.1 g BSA fraction V (Sigma#A-9647) in 10 mL distilled H2O, Stored at 4° C.
Developmental Hormone: 1 mg 20-hydroxyecdysone (Sigma #H-5142) in 1 mL 100% Ethanol. Stored at −25° C. Before use, stock is diluted 10× (1 mL added to 9 mL of 100% Ethanol). 10 μL of diluted 20-hydroxyecdysone is added to culture.
Dissection Procedures: Third instar larvae are removed from cultivation bottle with a wetted brush and washed in dH2O to remove food medium clinging to larvae. The cleaned larvae are dissected in Ringer's Medium using forceps. The imaginal discs are washed in fresh Ringer's Medium, and then cultivated with 1 mL of Robb's Medium in 12-well culture plate. Each culture well should have 30˜40 imaginal discs.
Culturing Procedures: In a larger container, place the 12-well culture plate on a moist towel, then seal the large container. Cultivate at 25° C. for 15 hours. Evaluation: Three categories will be used to grade the eversion of each imaginal disc. Full Eversion—the leg is fully extended from the disc. Partial Eversion—the leg is protruding from the epithelial. No Eversion—no sign of any protrusion.

[2] = test system: CHO-MG cells; assay: Cytotoxicity in PAT-deficient CHO-MG cells; type: cell-based, Chinese hamster
Excerpt: (§1) In terms of Table 1, L1210 cells are mouse leukemia cells and are the gold standard in terms of evaluating polyamine cytotoxicity data due to a plethora of prior data in this cell line for other polyamine structures. Clearly 7a was similar in all respects to 4a (Table 1). […] The lower the Ki value, the higher the affinity of the drug for the polyamine transporter (PAT) on the cell surface. Chinese hamster ovary (CHO) cells and a mutant line without an active PAT (CHO-MG) also evaluated the PAT selectivity of these drugs.
(§2) CHO and CHO-MG studies. Chinese hamster ovary (CHO) cells were chosen along with a mutant cell line (CHO-MG) in order to comment on how the synthetic conjugates gain access to cells. The CHO-MG cell line is polyamine-transport deficient and was isolated after selection for growth resistance to methylglyoxalbis(guanylhydrazone), MGBG, (CH3C[═N—NHC(═NH)NH2]CH[═N—NHC(═NH)NH2]) using a single-step selection after mutagenesis with ethylmethanesulfonate (Mandel et al., J. Cell. Physiol., 1978, 97, 335-344; Byers et al., Biochem. J. 1989, 263, 745-752).
For the purposes of this study, the CHO-MG cell line represents cells with no PAT activity and provided a model for alternative modes of entry or action, which are independent of PAT. These alternative modes of entry include passive diffusion or utilization of another transporter. The alternative modes of action may also include interactions on the outer surface of the plasma membrane or other membrane receptor interactions.
(§3) Biological studies. Murine leukemia cells (L1210), CHO and CHO-MG cells were grown in RPMI medium supplemented with 10% fetal calf serum, glutamine (2 mM), penicillin (100 U/mL), streptomycin (50 μg/mL). L-Proline (2 μg/mL) was added to the culture medium for CHO-MG cells. Cells were grown at 37° C. under a humidified 5% CO2 atmosphere. […] Trypan blue staining was used to determine cell viability before the initiation of a cytotoxicity experiment. Cells in early to mid log-phase were used. IC50 determinations. Cell growth was assayed in sterile 96-well microtiter plates (Becton-Dickinson, Oxnard, Calif., USA). L1210 cells were seeded at 5e^4 cells/mL of medium (100 μL/well). CHO and CHO-MG cells were plated at 2e^3 cells/mL. Drug solutions (10 μL per well) of appropriate concentration were added at the time of seeding for L1210 cells and after an overnight incubation for the CHO cell lines. After exposure to the drug for 48 hr, cell growth was determined by measuring formazan formation from 3-(4,5-dimethylthiazol-2-yl)2,5-diphenyltetrazolium using a Titertek Multiskan MCC/340 microplate reader for absorbance (540 nm) measurements (Mosmann, T., J. Immunol. Methods 1983, 65, 55-63).

[3] = test system: L1210 cells; assay: Cytotoxicity (cell growth, MTT) in L1210 cells; type: cell-based, mouse
Excerpt: as §1
Biological Evaluation. Once synthesized, the conjugates were screened for cytotoxicity in L1210, CHO and CHO-MG cells. L1210 (mouse leukemia) cells were selected to enable comparisons with the published IC50 and Ki values for a variety of polyamine substrates. Chinese Hamster Ovary (CHO) cells were chosen along with a mutant PAT deficient cell line (CHO-MG) in order to comment on selective transport via the PAT (Wang et al, J. Med. Chem. 2003, 46, 2663-2671; Wang et al, J. Med. Chem. 2003, 46, 2672-2682; Wang et al., J. Med. Chem. 2003, 46, 5129-5138; Delcros et al., J. Med. Chem., 2002, 45, 5098-5111).
(§4) L1210 IC50 and Ki studies. […] The Ki values in Table 3 were determined for [^14C]spermidine uptake and reflect the affinity of the polyamine derivative for the polyamine transporter on the cell surface. With both parameters, one can determine whether high affinity for the transporter (e.g., low Ki value) translated into high cytotoxicity (e.g., low IC50 value), etc.
Biological studies. Murine leukemia cells (L1210), CHO and CHO-MG cells were grown in RPMI medium supplemented with 10% fetal calf serum, glutamine (2 mM), penicillin (100 U/mL), streptomycin (50 μg/mL). L-Proline (2 μg/mL) was added to the culture medium for CHO-MG cells. Cells were grown at 37° C. under a humidified 5% CO2 atmosphere. Aminoguanidine (AG, 2 mM) was added to the culture medium to prevent oxidation of the drugs by the enzyme (bovine serum amine oxidase) present in calf serum. Trypan blue staining was used to determine cell viability before the initiation of a cytotoxicity experiment. Cells in early to mid log-phase were used. IC50 determinations. Cell growth was assayed in sterile 96-well microtiter plates (Becton-Dickinson, Oxnard, Calif., USA). L1210 cells were seeded at 5e^4 cells/mL of medium (100 μL/well). CHO and CHO-MG cells were plated at 2e^3 cells/mL. Drug solutions (10 μL per well) of appropriate concentration were added at the time of seeding for L1210 cells and after an overnight incubation for the CHO cell lines. After exposure to the drug for 48 hr, cell growth was determined by measuring formazan formation from 3-(4,5-dimethylthiazol-2-yl)2,5-diphenyltetrazolium using a Titertek Multiskan MCC/340 microplate reader for absorbance (540 nm) measurements (Mosmann, T., J. Immunol. Methods 1983, 65, 55-63).

[4] = test system: polyamine transporter (PAT); assay: Ki for inhibition of [14C]spermidine uptake in L1210 cells; type: cell-based, mouse; conditions: [14C]spermidine uptake, 10-min, 1 μM substrate; read-out: L1210 Ki values
Excerpt: as §1, §4
Ki procedure. The ability of the conjugates to interact with the polyamine transport system was determined by measuring competition by the conjugates against radiolabeled spermidine uptake in L1210 cells. Initially, the Km value of spermidine transport was determined as previously described (Clément et al., Biochem. J. 1995, 312, 933-938). The ability of conjugates to compete for [^14C]spermidine uptake were determined in L1210 cells by a 10-min uptake assay in the presence of increasing concentrations of competitor, using 1 μM [^14C]spermidine as substrate. Ki values for inhibition of spermidine uptake were determined using the Cheng-Prusoff equation (Cheng and Prusoff, Biochem. Pharmacol. 1973, 22, 3099-3108) from the IC50 value derived by iterative curve fitting of the sigmoidal equation describing the velocity of spermidine uptake in the presence of the respective competitor (Torossian et al., Biochem. J., 1996, 319, 21-26). L1210 cells were grown and maintained according to established procedures (Bergeron et al., J. Med. Chem. 2000, 43, 224-235) and were washed twice in HBSS prior to the transport assay.

[5] = test system: CHO cells; assay: Cytotoxicity in CHO cells; type: cell-based, Chinese hamster
Excerpt: as §1, §2
In contrast, the parent CHO cell line represents a cell type with high PAT activity. Comparison of conjugate cytotoxicity in these two CHO lines provided an important screen to detect selective conjugate delivery via the PAT. For example, a conjugate with high utilization of the polyamine transporter would be very toxic to CHO cells, but less so to CHO-MG cells. In short, highly-selective PAT ligands should give high (CHO-MG/CHO) IC50 ratios.
as §3

Work on `CCN(CCCN)Cc1c2ccccc2cc2ccccc12` [Compound 12c, N^1-Anthracen-9-ylmethyl-N^1-ethyl-propane-1,3-diamine] yielded an inhibition at 18 µM [1] of 79%.

`NCCCCNCc1c2ccccc2cc2ccccc12` [Compound 13b] was tested, and the “% Inhibition of eversion” value ([1]; 18 μM) was 91%.

`NCCCNCc1c2ccccc2cc2ccccc12` [Compound 16, N1-Anthracen-9-ylmethyl-propane-1,3-diamine] gave an inhibition at 18 µM [1] of 92%.

In the case of `CCN(CCCNCCCO)Cc1c2ccccc2cc2ccccc12` [Compound 20, 3-[3-(Anthracen-9-ylmethyl-ethyl-amino)-propylamino]-propan-1-ol], the inhibition at 18 µM [1] is reported as 38%.

`CCOCCCNCCCN(CC)Cc1c2ccccc2cc2ccccc12` [Compound 21, N-Anthracen-9-ylmethyl-N′-(3-ethoxy-propyl)-N-ethyl-propane-1,3-diamine] gave an inhibition at 18 µM [1] of 36%.

`CCN(CCCNCCCNC(C)=O)Cc1c2ccccc2cc2ccccc12` [Compound 24, N-{3-[3-(Anthracen-9-ylmethyl-ethyl-amino)-propylamino]-propyl}-acetamide] gave an inhibition at 18 µM [1] of 58%.

`CCNCCCCNCCCCNCc1c2ccccc2cc2ccccc12` [Compound 27, N-Anthracen-9-ylmethyl-N′-(4-ethylamino-butyl)-butane-1,4-diamine] showed an IC50 ([2]; Cricetulus griseus, CHO-MG, absence of AG, 48 h, read-out: CHO-MG IC50 w/o AG) of 51.2 µM, an IC50 ([2]; Cricetulus griseus, CHO-MG, in the presence of AG, 48 h at 37° C., read-out: CHO-MG IC50) of 57.9 µM and an IC50 ([3]; Mus musculus, L1210, in the presence of AG, 48 h at 37° C., read-out: L1210 IC50) of 1.01 µM. It also gave an IC50 ([3]; Mus musculus, L1210 experiments, no added SPD, read-out: L1210 IC50) of 1.01 µM, a Ki [4] of 3.5 µM and an IC50 ([5]; Cricetulus griseus, CHO, absence of AG, 48 h, read-out: CHO IC50 w/o AG) of 13.2 µM. For the same compound, the IC50 ([5]; Cricetulus griseus, CHO, in the presence of AG, 48 h at 37° C., read-out: CHO IC50) was 9.82 µM, the “CHOMG/CHO IC50 ratio in the absence of AG” value ([5]; absence of AG) was 4 and the “IC50 Ratio (CHO-MG/CHO) w/o AG” value ([5]; absence of AG) was 4. The “IC50 Ratio (CHO-MG/CHO), a measure of PAT selectivity” value ([5]; in the presence of AG) was 5.9, the “CHOMG/CHO IC50 ratio” value ([5]; with AG) was 5.9 and the “IC50 Ratio (CHO-MG/CHO) with AG” value ([5]; with AG) was 5.9.

For `CNCCCCNCCCCNCc1c2ccccc2cc2ccccc12` [Compound 28, N-Anthracen-9-ylmethyl-N′-(4-methylamino-butyl)-butane-1,4-diaine], the IC50 ([2]; absence of AG, 48 h, read-out: CHO-MG IC50 w/o AG) was 56.2 µM, the IC50 ([2]; in the presence of AG, 48 h at 37° C., read-out: CHO-MG IC50) was 60 µM and the IC50 ([3]; L1210 experiments, no added SPD, read-out: L1210 IC50) was 0.4 µM. The IC50 ([3]; in the presence of AG, 48 h at 37° C., read-out: L1210 IC50) was 0.4 µM, the IC50 ([3]; spermidine rescue, excess SPD (200 μM), read-out: L1210 IC50 in the presence of added SPD) was 1.38 µM and the Ki [4] was 8.2 µM. The “CHOMG/CHO IC50 ratio in the absence of AG” value ([5]; absence of AG) was 11.5, the “IC50 Ratio (CHO-MG/CHO) w/o AG” value ([5]; absence of AG) was 11.5 and the IC50 ([5]; absence of AG, 48 h, read-out: CHO IC50 w/o AG) was 4.89 µM. The “IC50 Ratio (CHO-MG/CHO), a measure of PAT selectivity” value ([5]; in the presence of AG) was 12.3, the IC50 ([5]; in the presence of AG, 48 h at 37° C., read-out: CHO IC50) was 4.88 µM and the “IC50 Ratio (CHO-MG/CHO) with AG” value ([5]; with AG) was 12.3.

Reference: patent US20090069441A1, “Motuporamine Mimic Agents” (priority 2006, published 2009)
